Test results reported in the NIST ThermoML archive (doi:10.1021/je800110r).

Settings: 333.15 K, Liquid, Vibrating tube method

CCCCCCCCCC [decane]
Settings | mass density [kg/m3]
19251 kPa | 716.4
19274 kPa | 716.4
19314 kPa | 716.5
19349 kPa | 716.6
19381 kPa | 716.6
19417 kPa | 716.4
19450 kPa | 716.6
19479 kPa | 716.6
19511 kPa | 716.6
19540 kPa | 716.7
19568 kPa | 716.7
19592 kPa | 716.6
19616 kPa | 716.7
19651 kPa | 716.8
19679 kPa | 716.8
19711 kPa | 716.7
19731 kPa | 716.7
19756 kPa | 716.9
19796 kPa | 716.8
19819 kPa | 716.8
19856 kPa | 716.9
19885 kPa | 717
19910 kPa | 716.9
19934 kPa | 717
19963 kPa | 717
19996 kPa | 716.9
20029 kPa | 717.1
20054 kPa | 717.2
20083 kPa | 717
20116 kPa | 717
20150 kPa | 717.1
20188 kPa | 717.1
20228 kPa | 717.3
20254 kPa | 717.2
20284 kPa | 717.3
20318 kPa | 717.2
20356 kPa | 717.3
20390 kPa | 717.3
20425 kPa | 717.4
20464 kPa | 717.3
20494 kPa | 717.3
20525 kPa | 717.4
20552 kPa | 717.5
20579 kPa | 717.5
20606 kPa | 717.4
20628 kPa | 717.4
20654 kPa | 717.5
20695 kPa | 717.6
20730 kPa | 717.5
20769 kPa | 717.6
20801 kPa | 717.6
20841 kPa | 717.6
20873 kPa | 717.7
20900 kPa | 717.7
20931 kPa | 717.7
20959 kPa | 717.8
20996 kPa | 717.7
21022 kPa | 717.8
21055 kPa | 717.8
21176 kPa | 717.9
21204 kPa | 717.9
21251 kPa | 717.9
21280 kPa | 718
21313 kPa | 718.1
21352 kPa | 718.1
21376 kPa | 718.1
21409 kPa | 718.2
21433 kPa | 718.1
21462 kPa | 718.2
21500 kPa | 718.2
21529 kPa | 718.2
21573 kPa | 718.3
21612 kPa | 718.4
21655 kPa | 718.3
21690 kPa | 718.4
21725 kPa | 718.4
21755 kPa | 718.4
21861 kPa | 718.6
21901 kPa | 718.5
21931 kPa | 718.6
21967 kPa | 718.6
22007 kPa | 718.5
22038 kPa | 718.6
22074 kPa | 718.7
22115 kPa | 718.7
22162 kPa | 718.7
22193 kPa | 718.8
22224 kPa | 718.8
22261 kPa | 718.8
22293 kPa | 718.8
22345 kPa | 718.9
22381 kPa | 718.9
22419 kPa | 719
22471 kPa | 719
22498 kPa | 718.9
22530 kPa | 719
22561 kPa | 719
22611 kPa | 719
22649 kPa | 719.1
22677 kPa | 719.1
22726 kPa | 719.1
22771 kPa | 719.2
22816 kPa | 719.2
22849 kPa | 719.4
22899 kPa | 719.3
22927 kPa | 719.4
22959 kPa | 719.3
23000 kPa | 719.3
23038 kPa | 719.5
23068 kPa | 719.3
23096 kPa | 719.5
23134 kPa | 719.6
23172 kPa | 719.5
23219 kPa | 719.5
23252 kPa | 719.6
23281 kPa | 719.5
23314 kPa | 719.6
23339 kPa | 719.7
23382 kPa | 719.7
23416 kPa | 719.8
23452 kPa | 719.7
23491 kPa | 719.8
23539 kPa | 719.9
23579 kPa | 719.7
23623 kPa | 719.9
23657 kPa | 719.9
23697 kPa | 719.9
23726 kPa | 719.9
23766 kPa | 720
23797 kPa | 720
23831 kPa | 719.9
23868 kPa | 720.1
23898 kPa | 720.1
23943 kPa | 720.1
23979 kPa | 720
24014 kPa | 720.1
24049 kPa | 720.1
24085 kPa | 720.1
24131 kPa | 720.3
24177 kPa | 720.3
24224 kPa | 720.2
24260 kPa | 720.2
24308 kPa | 720.3
24355 kPa | 720.4
24402 kPa | 720.5
24433 kPa | 720.5
24481 kPa | 720.5
24513 kPa | 720.5
24550 kPa | 720.5
24586 kPa | 720.6
24618 kPa | 720.6
24656 kPa | 720.6
24700 kPa | 720.6
24738 kPa | 720.7
24783 kPa | 720.8
24815 kPa | 720.9
24859 kPa | 720.8
24897 kPa | 720.9
24935 kPa | 720.9
24974 kPa | 720.7
25013 kPa | 721
25058 kPa | 720.9
25114 kPa | 721.1
25142 kPa | 721
25177 kPa | 721
25213 kPa | 721.1
25259 kPa | 721.1
25303 kPa | 721.2
26374 kPa | 721.9
26417 kPa | 722
26462 kPa | 722.1
26501 kPa | 722
27273 kPa | 722.7
27328 kPa | 722.6
27371 kPa | 722.6
27419 kPa | 722.6
29838 kPa | 724.5
29868 kPa | 724.5
29913 kPa | 724.5
29948 kPa | 724.6
29988 kPa | 724.7
30720 kPa | 725.2
30760 kPa | 725.2
30787 kPa | 725.3
30831 kPa | 725.2
30857 kPa | 725.2
30898 kPa | 725.3
30924 kPa | 725.4
30960 kPa | 725.2
31000 kPa | 725.3
31027 kPa | 725.4
31059 kPa | 725.4
31090 kPa | 725.4
31122 kPa | 725.4
31148 kPa | 725.4
31190 kPa | 725.5
31218 kPa | 725.5
31259 kPa | 725.6
31295 kPa | 725.5
31332 kPa | 725.6
31592 kPa | 725.8
31630 kPa | 725.8
31667 kPa | 725.7
31731 kPa | 725.9
31793 kPa | 725.9
31821 kPa | 725.9
31859 kPa | 726
31893 kPa | 725.9
31921 kPa | 726.1
31956 kPa | 726
31994 kPa | 726
32038 kPa | 726.1
32086 kPa | 726.1
32125 kPa | 726
32150 kPa | 726.2
32479 kPa | 726.4
32505 kPa | 726.4
32549 kPa | 726.4
32589 kPa | 726.4
32625 kPa | 726.4
32670 kPa | 726.7
32696 kPa | 726.6
32737 kPa | 726.6
32780 kPa | 726.6
32812 kPa | 726.5
32850 kPa | 726.6
32883 kPa | 726.6
32910 kPa | 726.7
32948 kPa | 726.7
32985 kPa | 726.7
33027 kPa | 726.8
33070 kPa | 726.8
33098 kPa | 726.9
33136 kPa | 726.8
33179 kPa | 726.8
33213 kPa | 727
33251 kPa | 726.8
33289 kPa | 726.9
33328 kPa | 726.9
33366 kPa | 727
33404 kPa | 727.1
33434 kPa | 727
33473 kPa | 727
33508 kPa | 727
33553 kPa | 727.1
33593 kPa | 727.3
33633 kPa | 727.1
33660 kPa | 727.2
33693 kPa | 727.3
33721 kPa | 727.3
33748 kPa | 727.3
33772 kPa | 727.2
33796 kPa | 727.3
33816 kPa | 727.4
33851 kPa | 727.3
33876 kPa | 727.5
33907 kPa | 727.3
33943 kPa | 727.5
33976 kPa | 727.5
34008 kPa | 727.4
34037 kPa | 727.5
34062 kPa | 727.6
34091 kPa | 727.5
34116 kPa | 727.6
34150 kPa | 727.6
34176 kPa | 727.6
34219 kPa | 727.7
34246 kPa | 727.7
34288 kPa | 727.7
34326 kPa | 727.7
34351 kPa | 727.7
34386 kPa | 727.8
34412 kPa | 727.8
34437 kPa | 727.7
